Data from patent US9809597B2, “Ganciclovir derivatives for modulating innate and adaptive immunity and for use in immunotherapy” (The Board of Trustees of the Leland Stanford Junior …, priority 2015, dated 2017).

Tests used:
[1] = system: THP-1 human monocyte cells; test: RT-PCR for CXCL10 in THP-1 cells; type: cell-based; settings: 200 μM, 8-24 hours
Procedure: BV-2 mouse microglia cells were grown in DMEM+10% FBS and THP-1 human monocyte cells were grown in RPMI-40+10% FBS+0.05 mM β-mercaptoethanol at 37° C., 5% CO2. Adherent cells were split using 1×TrypLE (Gibco). For cellular assays, cells were treated with the following concentrations of drugs as indicated in the DMEM without serum: 100-200 μM ganciclovir, 10 ng/ml IFNγ (R&D systems), 100 ng/ml LPS (Sigma-Aldrich), 1-10 μM Fludarabine (Selleckchem), 1 μM Ruxolitinib (Selleckchem), 1 μM TG-101348 (Selleckchem), 1 μM Amlexanox (Tocris bioscience) unless otherwise noted. All experiments were run in triplicates and replicated at least 3 times with cell lines and at least twice with primary microglia. Average data are shown for cell lines and representative data are shown for primary cells. Secreted signaling proteins were measured in supernatants from cultured cells stimulated with GCV and conditioned for 24 hours in the absence of serum using two independent Luminex arrays (Human Immune Monitoring Center, Stanford and Eve technologies, Canada). Nitrite assay was performed on conditioned culture supernatants of cells stimulated with drugs for 24 hours using the Griess Reagent System (Promega) according to manufacturer's instructions. To assess cellular viability, cell confluence was measured using an automated microscope (Cellavista; Roche). […]

BV-2 cells = test: RT-PCR for CXCL10 and IFNβ transcripts in BV-2 cells; type: cell-based, mouse; settings: for induction of CXCL10 mRNA / induction of IFNβ transcript: 200 μM; for induction of IFNβ transcript: microglia (BV-2, primary); for induction of CXCL10 mRNA on neutralization of IFNβ with an antibody: 200 μM with anti-IFNβ antibody, 4 hours
Procedure: (§1) BV-2 mouse microglia cells were grown in DMEM+10% FBS and THP-1 human monocyte cells were grown in RPMI-40+10% FBS+0.05 mM β-mercaptoethanol at 37° C., 5% CO2. Adherent cells were split using 1×TrypLE (Gibco). For cellular assays, cells were treated with the following concentrations of drugs as indicated in the DMEM without serum: 100-200 μM ganciclovir, 10 ng/ml IFNγ (R&D systems), 100 ng/ml LPS (Sigma-Aldrich), 1-10 μM Fludarabine (Selleckchem), 1 μM Ruxolitinib (Selleckchem), 1 μM TG-101348 (Selleckchem), 1 μM Amlexanox (Tocris bioscience) unless otherwise noted. All experiments were run in triplicates and replicated at least 3 times with cell lines and at least twice with primary microglia. Average data are shown for cell lines and representative data are shown for primary cells. Secreted signaling proteins were measured in supernatants from cultured cells stimulated with GCV and conditioned for 24 hours in the absence of serum using two independent Luminex arrays (Human Immune Monitoring Center, Stanford and Eve technologies, Canada). Nitrite assay was performed on conditioned culture supernatants of cells stimulated with drugs for 24 hours using the Griess Reagent System (Promega) according to manufacturer's instructions. To assess cellular viability, cell confluence was measured using an automated microscope (Cellavista; Roche).
(§2) RNA was isolated from cells using RNeasy mini kit from Qiagen. DNased RNA was converted to cDNA using SuperScript III reverse transcriptase kit (Life technologies). The cDNA was used to quantify specific targets using SYBR green in Roche Lightcycler 480. ΔΔCt values normalized against the experimental control to determine fold change in mRNA for each sample compared to untreated or vehicle treated control. β-actin or Ubc or both were used as housekeeping genes. Primer sequences were obtained from PrimerBank. Fold change is shown compared to the vehicle treated or untreated cells, unless otherwise noted.

[2] = system: IFNγ/LPS stimulated BV-2 microglia; test: Nitrite assay (Griess) on culture supernatants; type: cell-based, mouse; settings: 24 hours
Procedure: as §1

primary microglia = test: RT-PCR for CXCL10 and IFNβ transcripts in primary microglia (wildtype, tk KO, STING^gt/gt); type: cell-based, mouse; settings: 200 μM, 6 hours; for CXCL10 mRNA in microglia from tk1 knockout mice: adult tk1 knockout primary microglia; for induction of CXCL10 mRNA in STING^gt/gt primary microglia / induction of IFNβ mRNA in STING^gt/gt primary microglia: primary microglia lacking functional STING
Procedure: Mice were housed and bred according to the Institutional Animal Care and Use Committee guidelines. Primary microglia and astrocytes were isolated from P0-P3 C57BL/6 mouse pups. Cortices from pups were isolated, meninges removed and tissue was dissociated using a 25-gauge needle. Two cortices were plated on each poly-L-lysine coated T-75 flasks in DMEM/F12+10% FBS+1% penicillin/streptomycin. Microglia and astrocyte co-cultures were maintained for 3 weeks, after which microglia were isolated using CD11b magnetic beads (Miltenyi Biotec) according to the manufacturer's instructions. Isolated microglia were allowed to recover for 1-2 days and processed for cellular assays described above.
For tk KO experiments only, microglia were isolated from adult mouse brains using the neural dissociation kit (Miltenyi Biotec) according to manufacturer's protocol followed by CD11b magnetic bead enrichment. Isolated cells were cultured for 3-4 days before the experiment.
as §2

[3] = system: BV-2 and primary microglia stimulated with IFNγ and LPS; test: RT-PCR of inflammatory transcripts in IFNγ/LPS stimulated microglia; type: cell-based, mouse; settings: IFNγ/LPS stimulated BV-2 microglia, 200 μM, 24 hours
Procedure: BV-2 mouse microglia cells were grown in DMEM+10% FBS and THP-1 human monocyte cells were grown in RPMI-40+10% FBS+0.05 mM β-mercaptoethanol at 37° C., 5% CO2. Adherent cells were split using 1×TrypLE (Gibco). For cellular assays, cells were treated with the following concentrations of drugs as indicated in the DMEM without serum: 100-200 μM ganciclovir, 10 ng/ml IFNγ (R&D systems), 100 ng/ml LPS (Sigma-Aldrich), 1-10 μM Fludarabine (Selleckchem), 1 μM Ruxolitinib (Selleckchem), 1 μM TG-101348 (Selleckchem), 1 μM Amlexanox (Tocris bioscience) unless otherwise noted. All experiments were run in triplicates and replicated at least 3 times with cell lines and at least twice with primary microglia. Average data are shown for cell lines and representative data are shown for primary cells. Secreted signaling proteins were measured in supernatants from cultured cells stimulated with GCV and conditioned for 24 hours in the absence of serum using two independent Luminex arrays (Human Immune Monitoring Center, Stanford and Eve technologies, Canada). Nitrite assay was performed on conditioned culture supernatants of cells stimulated with drugs for 24 hours using the Griess Reagent System (Promega) according to manufacturer's instructions. To assess cellular viability, cell confluence was measured using an automated microscope (Cellavista; Roche). Mice were housed and bred according to the Institutional Animal Care and Use Committee guidelines. Primary microglia and astrocytes were isolated from P0-P3 C57BL/6 mouse pups. Cortices from pups were isolated, meninges removed and tissue was dissociated using a 25-gauge needle. Two cortices were plated on each poly-L-lysine coated T-75 flasks in DMEM/F12+10% FBS+1% penicillin/streptomycin. Microglia and astrocyte co-cultures were maintained for 3 weeks, after which microglia were isolated using CD11b magnetic beads (Miltenyi Biotec) according to the manufacturer's instructions. Isolated microglia were allowed to recover for 1-2 days and processed for cellular assays described above. RNA was isolated from cells using RNeasy mini kit from Qiagen. […] was converted to cDNA using SuperScript III reverse transcriptase kit (Life technologies). The cDNA was used to quantify specific targets using SYBR green in Roche Lightcycler 480. ΔΔCt values normalized against the experimental control to determine fold change in mRNA for each sample compared to untreated or vehicle treated control. β-actin or Ubc or both were used as housekeeping genes. Primer sequences were obtained from PrimerBank. Fold change is shown compared to the vehicle treated or untreated cells, unless otherwise noted.

BV-2 microglia = test: siRNA knockdown (STING, IRF3, Stat1, Jak2), then RT-PCR for CXCL10; type: cell-based, mouse; settings: for CXCL10 or IFNβ mRNA expression after siRNA knockdown of Stat1 and Jak2 or lack of Stat1: BV-2 cells (siRNA) or Stat1 knockout primary microglia, 200 μM
Procedure: Smartpool siRNAs against mouse targets were bought from Dharmacon and transfected in microglia cells using Viromer Blue from Lipocalyx at a concentration of 50 nM according to manufacturer's instructions. Drugs were added cells after 24 hours of transfection and assays done 24 hours after addition of drugs.
as §2

[4] = BV-2 microglia, siRNA 24 hours, then 200 μM for 24 hours

Cc1ccc2c(=O)c3cccc(CC(=O)O)c3oc2c1C [DMXAA]
induction of CXCL10 mRNA in human monocyte cell line [1]: did not | induction of CXCL10 mRNA (BV-2 cells; BV-2 cells, 24 hours): strongly induced | induction of IFNβ transcript (BV-2 cells): strongly induced

NC1=Nc2c(ncn2COC(CO)CO)C(OCCOCCOCCOCCO)N1 (centres unmarked) [monoGCV, 2-{[2-Amino-6-(2-{2-[2-(2-hydroxyethoxy)ethoxy]ethoxy}ethoxy)-6,9-dihydro-1H-purin-9-yl]methoxy}-1,3-propanediol]
microglial nitric oxide production (nitrite assay) [2]: potently reduced | CXCL10 mRNA in microglia from tk1 knockout mice (primary microglia): triggered CXCL10 independent of endogenous tk1 | induction of CXCL10 mRNA in STING^gt/gt primary microglia (primary microglia): failed to induce | induction of IFNβ mRNA in STING^gt/gt primary microglia (primary microglia): failed to induce | inflammatory markers (transcripts) [3]: potently reduced | CXCL10 or IFNβ mRNA expression after siRNA knockdown of Stat1 and Jak2 or lack of Stat1 (BV-2 microglia): significantly reduced | induction of CXCL10 mRNA on neutralization of IFNβ with an antibody (BV-2 cells; BV-2 cells): partly reduced

O=C(O)P(=O)(O)O [Foscarnet]
induction of CXCL10 mRNA (BV-2 cells; BV-2 cells, 24 hours): failed to induce

Nc1nc2c(ncn2[C@@H]2O[C@@H]3COP(=O)(O)O[C@H]4[C@@H](O)[C@H](n5cnc6c(=O)[nH]c(N)nc65)O[C@@H]4COP(=O)(O)O[C@H]3[C@H]2O)c(=O)[nH]1 [c-diGMP]
induction of CXCL10 mRNA (BV-2 cells; BV-2 cells, 24 hours): strongly induced | induction of IFNβ transcript (BV-2 cells): strongly induced

Nc1nc2c(ncn2[C@@H]2O[C@@H]3COP(=O)(O)O[C@H]4[C@@H](O)[C@H](n5cnc6c(N)ncnc65)O[C@@H]4COP(=O)(O)O[C@@H]2[C@@H]3O)c(=O)[nH]1 [cGAMP, cyclic-GAMP]
CXCL10 or IFNβ mRNA expression after siRNA knockdown of Stat1 and Jak2 or lack of Stat1 (BV-2 microglia): significantly reduced | induction of CXCL10 mRNA on neutralization of IFNβ with an antibody (BV-2 cells; BV-2 cells): partly reduced | induction of CXCL10 mRNA (BV-2 cells; BV-2 cells, 24 hours): strongly induced | induction of IFNβ transcript (BV-2 cells): strongly induced

Nc1nc2c(ncn2[C@@H]2O[C@H](CO)[C@@H](O)[C@H]2O)c(=O)[nH]1 [guanosine]
induction of CXCL10 mRNA (BV-2 cells; BV-2 cells, 24 hours): failed to induce

Nc1ccn(C[C@@H](CO)OCP(=O)(O)O)c(=O)n1 [Cidofovir]
induction of CXCL10 mRNA (BV-2 cells; BV-2 cells, 24 hours): failed to induce

NC1=Nc2c(ncn2COC(CO)CO)C(OCCOCCOCCOCCOc2nc(N)nc3c2ncn3COC(CO)CO)N1 (centres unmarked) [diGCV, 2-({2-Amino-6-[2-(2-{2-[2-(2-amino-9-{[2-hydroxy-1-(hydroxymethyl)ethoxy]methyl}-9H-purin-6-yloxy)ethoxy]ethoxy}ethoxy)ethoxy]-6,9-dihydro-1H-purin-9-yl}methoxy)-1,3-propanediol]
microglial nitric oxide production (nitrite assay) [2]: potently reduced | CXCL10 mRNA in microglia from tk1 knockout mice (primary microglia): triggered CXCL10 independent of endogenous tk1 | induction of CXCL10 mRNA in STING^gt/gt primary microglia (primary microglia): failed to induce | induction of IFNβ mRNA in STING^gt/gt primary microglia (primary microglia): failed to induce | inflammatory markers (transcripts) [3]: potently reduced | CXCL10 or IFNβ mRNA expression after siRNA knockdown of Stat1 and Jak2 or lack of Stat1 (BV-2 microglia): significantly reduced | capacity to induce CXCL10 after siRNA knock down of STING (BV-2 microglia; [4]): largely abrogated | potential to induce CXCL10 mRNA after siRNA knockdown of IRF3 (BV-2 microglia; [4]): inhibited | induction of CXCL10 mRNA on neutralization of IFNβ with an antibody (BV-2 cells; BV-2 cells): partly reduced | induction of CXCL10 mRNA (BV-2 cells; BV-2 cells, 24 hours): increased potency

Cc1cnc(Nc2ccc(OCCN3CCCC3)cc2)nc1Nc1cccc(S(=O)(=O)NC(C)(C)C)c1 [TG101348]
inhibition of CXCL10 production in response to GCV and diGCV (BV-2 cells; BV-2 cells, 24 hours, 10 μM Fludarabine or 1 μM Jak inhibitor with 200 μM GCV or diGCV): strongly inhibited | inhibition of CXCL10 production in response to cGAMP (BV-2 cells; BV-2 cells, 24 hours, 10 μM Fludarabine or 1 μM Jak inhibitor with 200 μM cGAMP): somewhat less pronounced

CC(C)c1ccc2oc3nc(N)c(C(=O)O)cc3c(=O)c2c1 [Amlexanox]
inhibition of CXCL10 mRNA induction by GCV and diGCV (Tbk1 inhibition) (BV-2 cells; BV-2 cells, 1 μM Amlexanox with 200 μM GCV or diGCV, 24 hours): inhibited

Nc1ncnc2c1ncn2[C@@H]1O[C@H](CO)[C@@H](O)[C@@H]1O [Vidarabine]
induction of CXCL10 mRNA (BV-2 cells; BV-2 cells, 24 hours): failed to induce

NC(=O)c1ncn([C@@H]2O[C@H](CO)[C@@H](O)[C@H]2O)n1 [Ribavirin]
induction of CXCL10 mRNA (BV-2 cells; BV-2 cells, 24 hours): failed to induce

NC1=Nc2c(ncn2COC(CO)CO)C(OCCCSSCCCOC2NC(N)=Nc3c2ncn3COC(CO)CO)N1 (centres unmarked) [thiol-GCV, 2-[(2-Amino-6-{3-[3-(2-amino-9-{[2-hydroxy-1-(hydroxymethyl)ethoxy]methyl}-6,9-dihydro-1H-purin-6-yloxy)propyldithio]propoxy}-6,9-dihydro-1H-purin-9-yl)methoxy]-1,3-propanediol]
induction of CXCL10 mRNA (BV-2 cells; BV-2 cells, 24 hours): increased potency

Nc1nc2c(ncn2CCC(CO)CO)c(=O)[nH]1 [Penciclovir]
induction of CXCL10 mRNA (BV-2 cells; BV-2 cells, 24 hours): failed to induce

Nc1nc2nc[nH]c2c(=O)[nH]1 [guanine]
induction of CXCL10 mRNA (BV-2 cells; BV-2 cells, 24 hours): failed to induce

Nc1nc2c(ncn2COCCO)c(=O)[nH]1 [Acyclovir]
induction of CXCL10 mRNA (BV-2 cells; BV-2 cells, 24 hours): failed to induce
